Assay results: patent US10934263B2, “Charged ion channel blockers and methods for use” (Nocion Therapeutics, Inc., priority 2019, dated 2021)

Key:
[1] = biological target: T1, NaV1.7 (Homo sapiens, UniProt Q15858); assay: Automated patch clamp (Qube 384), internal block of NaV1.7 in HEK293 cells; type: cell-based; conditions: compound in internal solution, read-out: Nav1.7 Intracellular Inhibition (IC50)
T1 construct: expressed in transfected cells; tetracycline-inducible, kept under hygromycin and blasticidin
T1 sequence (Q15858 whole entry): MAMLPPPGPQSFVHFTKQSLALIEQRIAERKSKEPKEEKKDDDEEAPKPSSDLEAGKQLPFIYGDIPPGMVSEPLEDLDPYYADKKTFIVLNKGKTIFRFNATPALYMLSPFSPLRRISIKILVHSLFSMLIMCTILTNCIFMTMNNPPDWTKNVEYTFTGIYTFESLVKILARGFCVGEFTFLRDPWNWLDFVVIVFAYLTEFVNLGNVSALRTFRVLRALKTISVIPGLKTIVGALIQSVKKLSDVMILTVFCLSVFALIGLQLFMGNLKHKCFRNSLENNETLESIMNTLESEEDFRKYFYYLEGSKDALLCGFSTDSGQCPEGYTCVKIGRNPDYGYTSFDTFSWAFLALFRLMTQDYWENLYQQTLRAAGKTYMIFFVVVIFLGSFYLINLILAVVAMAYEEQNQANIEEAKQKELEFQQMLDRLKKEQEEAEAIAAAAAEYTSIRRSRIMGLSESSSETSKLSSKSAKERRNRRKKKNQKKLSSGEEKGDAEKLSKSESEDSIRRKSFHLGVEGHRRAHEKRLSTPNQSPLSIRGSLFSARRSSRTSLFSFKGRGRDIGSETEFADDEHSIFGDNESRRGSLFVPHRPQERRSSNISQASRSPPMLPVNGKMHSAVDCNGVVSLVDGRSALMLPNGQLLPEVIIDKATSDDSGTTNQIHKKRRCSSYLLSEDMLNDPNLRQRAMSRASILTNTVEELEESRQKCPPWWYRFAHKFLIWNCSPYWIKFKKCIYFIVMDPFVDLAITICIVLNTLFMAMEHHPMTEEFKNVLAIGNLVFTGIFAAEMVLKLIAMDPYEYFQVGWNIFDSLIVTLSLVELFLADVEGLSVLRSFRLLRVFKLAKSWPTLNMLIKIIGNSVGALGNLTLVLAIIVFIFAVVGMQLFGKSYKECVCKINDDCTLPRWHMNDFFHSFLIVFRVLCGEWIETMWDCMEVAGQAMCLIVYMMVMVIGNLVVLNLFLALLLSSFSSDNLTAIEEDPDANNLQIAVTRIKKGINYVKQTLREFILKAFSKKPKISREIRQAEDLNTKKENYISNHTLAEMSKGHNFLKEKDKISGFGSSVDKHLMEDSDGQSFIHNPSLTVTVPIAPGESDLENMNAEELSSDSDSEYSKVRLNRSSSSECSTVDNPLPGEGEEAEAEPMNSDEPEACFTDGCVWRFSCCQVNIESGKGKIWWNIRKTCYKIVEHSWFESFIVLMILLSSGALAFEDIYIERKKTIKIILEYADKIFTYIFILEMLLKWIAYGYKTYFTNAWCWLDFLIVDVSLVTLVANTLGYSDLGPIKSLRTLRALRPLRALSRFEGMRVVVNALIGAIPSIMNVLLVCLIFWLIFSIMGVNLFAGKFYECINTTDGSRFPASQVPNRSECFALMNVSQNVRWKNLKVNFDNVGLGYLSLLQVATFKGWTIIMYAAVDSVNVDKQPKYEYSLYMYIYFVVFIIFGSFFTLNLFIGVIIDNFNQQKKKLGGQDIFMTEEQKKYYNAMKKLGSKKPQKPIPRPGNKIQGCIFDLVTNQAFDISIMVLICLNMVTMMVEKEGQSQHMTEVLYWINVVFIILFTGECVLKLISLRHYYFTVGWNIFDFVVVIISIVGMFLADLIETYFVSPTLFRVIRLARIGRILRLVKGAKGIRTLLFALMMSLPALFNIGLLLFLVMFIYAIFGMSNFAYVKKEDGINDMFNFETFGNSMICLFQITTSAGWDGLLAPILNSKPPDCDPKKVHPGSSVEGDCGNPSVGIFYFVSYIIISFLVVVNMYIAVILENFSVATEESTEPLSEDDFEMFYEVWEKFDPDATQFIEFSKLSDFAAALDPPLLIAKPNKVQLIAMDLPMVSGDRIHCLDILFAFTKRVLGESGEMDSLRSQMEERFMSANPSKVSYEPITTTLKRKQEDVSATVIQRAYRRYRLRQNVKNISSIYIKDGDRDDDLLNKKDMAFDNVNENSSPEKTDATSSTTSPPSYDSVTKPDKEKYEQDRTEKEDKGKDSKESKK
Procedure: (§1) NaV1.7 was expressed in HEK293 cells upon induction with tetracycline. Cells were cultured in DMEM containing 10% dialyzed Fetal Bovine Serum (VWR, Radnor, Pa.), 1% Glutamax (VWR, Radnor, Pa.), 1% Penicillin-Streptomycin (VWR, Radnor, Pa.), 100 mg/L Hygromycin (Thermo Fisher Scientific, Waltham, Mass. and 5 mg/L Blasticidin (Alfa Aesar, Haverhill, Mass.). Cells were grown and maintained at 37° C. in a humidified environment containing 10% CO2 in air. Cells were detached from the culture flask for passage and harvested using 0.05% Trypsin-EDTA (Thermo Fisher Scientific, Waltham, Mass.). To induce NaV1.7, cells were induced with tetracycline (0.1-1 μg/mL, IBI Scientific, Peosta, Iowa) the day before recording.
(§2) Before experiments, cells were washed with DPBS (VWR, Radnor, Pa.), digested with Detachin (VWR Radnor, Pa.) and then triturated 10 times in CHO Serum-Free Media (VWR Radnor, Pa.) to resuspend the cells and to break apart cell aggregates. Cells were counted and the final concentration was set at 2-5 million cells per mL.
(§3) The intracellular solution contained the following: 140 mM CsF, 1 mM/5 mM EGTA/CsOH, 10 mM HEPES, 10 mM NaCl, adjusted to pH 7.3 with CsOH, and osmolality to 320 with sucrose. The external solution contained the following: 145 mM NaCl, 4 mM KCl, 1 mM MgCl2, 2 mM CaCl2, 10 mM HEPES, 10 mM Glucose, adjusted to pH 7.4 with CsOH and osmolality to 305 with sucrose. All chemicals are from Sigma-Aldrich, St. Louis, Mo. In order to test the degree of internal block by test compounds, the compounds were dissolved in internal solution at the indicated test concentration. […] In order to test the degree of external block by test compounds the compounds were dissolved in external solution at the indicated test concentration.
(§4) Automated Patch Clamps were performed on Qube 384 (Sophion Bioscience, Woburn Mass.) with multihole Qchips at a temperature setting of 22 degrees. The whole cells configuration was formed with default Qube seal and break-in parameter. The membrane potential was held at −100 mV before the voltage protocol began. Two voltage protocols were followed.
(§5) Step 1: Cells were held at −100 mV with a depolarized pulse to −20 mV for 10 ms, the interval was set at 5 s. Currents were corrected by default leak subtraction from every pulse. The duration was set at 5 mins.
(§6) Step 2: Cells were held at −100 mV with a depolarized pulse to −20 mV for 10 ms. The frequency was 5 Hz. Currents were corrected by leak subtraction calculated before step 2. The duration was set at 4 mins.
After Step 2, the Qchip was removed from the recording chamber. The internal solution was changed with solutions containing test compounds. Qchips were held at −100 mV without pulsing after being replaced in the recording chamber. The total solution switching time was 8 minutes. After the internal solution exchange, Cells were recorded and step 2 for repeated for 10 minutes.
Data analysis was performed by Sophion Analyzer. Cells were filtered with minimum 50 MOhm seal resistance and minimum 5 nA starting current. The rundown of the currents was corrected with control cells (Non-Drug). The remaining was calculated by averaging last 3 points in the end of experiments. The base line was calculated as the average of last 3 points of Step 2. IC50 curves were plotted with DR-plots/Hill function (a dose-response plot with a Hill fit). Data analysis was performed by Sophion Analyzer.

[2] = biological target: T1, NaV1.7; assay: Automated patch clamp (Qube 384), external block of NaV1.7 in HEK293 cells; type: cell-based; conditions: compound in external solution, read-out: Nav1.7 Extracellular Inhibition (IC50)
Procedure: as §1, §2, §3, §4, §5, §6
After Step 2, the external solution was changed with solutions containing test compounds. Qchips were held at −100 mV without pulsing. The total solution switching time was 8 minutes. After the external solution exchange, cells were recorded using the same procedure as step 2 for 10 minutes.
Data analysis was performed by Sophion Analyzer. Data were corrected with control cells (Non-Drug). The IC50 data were plotted with DR-plots/Hill function (a dose-response plot with a Hill fit).

[3] = PAMPA membrane permeability assay; type: in vitro ADME; conditions: PAMPA permeability coefficient, GIT lipid, buffer pH 7.4, 4 hours incubation
Procedure: The PAMPA assay (pION, Inc., Woburn Mass.) was used to determine the ability of compounds of the invention to cross an artificial lipid membrane by passive diffusion. Test compounds were dissolved in DMSO (10 mM) and diluted 200-fold in buffer (pION Inc., pH 7.4) to provide 50 uM stock solutions. Buffer (150 μL) was added to a UV blank plate and stock solutions (150 μL) were transferred to a UV reference plate. The blank and reference spectrum were read using a spectrophotometer. Stock solutions (200 μL) were added to the donor plate of the PAMPA sandwich plate and an accept plate painted with GIT lipid (pION Inc, 5 μL) was placed on top. Buffer (200 μL) was added to the acceptor plate and the PAMPA sandwich plate was incubated for 4 hours. Aliquots (150 μL) from the acceptor plate were added to a UV plate and read as acceptor spectrum. Aliquots (150 μL) of the donor solutions were added to a UV analysis plate and read as donor spectrum. The permeability coefficient of test compounds was calculated using PAMPA Explorer™ software (version 3.5.0.4) based on the AUC of the reference plate, the donor plate, and the acceptor plate.

[4] = biological target: T1, NaV1.7; assay: Whole cell patch clamp, internal block of NaV1.7 current (compound in internal solution); type: cell-based; conditions: % inhibition at 10 μM, compound applied internally, manual patch clamp; read-out: Nav1.7 Intracellular Inhibition
Procedure: Representative compounds of the invention were synthesized according to the described methods and tested for the ability to inhibit voltage-gated sodium channels.
as §1, with “expressed” for “expressed in HEK293 cells”, “recording and plated onto 24-well plates. Cells were washed with DPBS (VWR, Radnor, Pa.), trypsinized and then triturated five times in 10 mL of growth media to break apart cell aggregates. For one 24-well plate, 2 mL of cell suspension was mixed with 23 mL of fresh growth media and 0.1-1 μg/mL tetracycline added. 1 ml of mixed media with cells was then added to each well of a 24-well plate, with a 12 mm coverslip already placed in the bottom of the well. Cells were then incubated in 37° C. and 10% CO2 overnight.” for “recording.”
The intracellular solution contained the following (in mM) CsCl 135, NaCl 10, EGTA 10, HEPES 10, MgCl2 2, adjusted to pH 7.2 with CsOH. The external solution was a normal Ringer solution containing (in mM) NaCl 155, HEPES 10, glucose 10, KCl 3.5, CaCl2 1.5, MgCl2 1 adjusted to pH 7.4 with NaOH. CsCl is from Alfa Aesar, Haverhill, Mass. All other chemicals are from Sigma-Aldrich, St. Louis, Mo. In order to test the degree of internal block by test compounds the compounds were dissolved in internal solution at the indicated test concentration. […] In order to test the degree of external block by test compounds the compounds were dissolved in external solution at the indicated test concentration.
18-24 hours after cells were induced with tetracycline, coverslips were placed into a chamber filled with Normal Ringer solution at room temperature and the chamber placed on a microscope. Pipettes were pulled from borosilicate glass on a P97 puller (Sutter Instrument, Novato, Calif.) and polished with a MF-830 Microforge (Narishige International USA, Inc, Amityville, N.Y.) to have a resistance of 1.5-2.5 MΩ when filled with CsCl internal solution at room temperature. Healthy cells (those that are round and translucent with no visible blemishes) were chosen for seal formation. A seal was formed between the pipette and the cell, and a brief pulse of suction was used to “break in” and establish the whole-cell configuration. The membrane potential was held at −100 mV before the voltage protocol began. Only cells with series resistance between 1.5-5 MΩ were retained for analysis. The voltage protocol was as follows: Cells were held at −100 mV for 12 ms followed by a hyperpolarizing step to −105 mV for 12 ms to monitor the leak. Cells were then stepped back to −100 mV for 40 ms. Cells were then depolarized to −20 mV for 10 ms and then returned to −100 mV for 26 ms.
Once the recording was started, the voltage protocol was run at 30 second intervals for 5 minutes to get a stable baseline. This was followed by four 30-second periods of 5 Hz stimulation of the same voltage protocol separated by 1 minute of rest which was then followed by 0.33 Hz stimulation after the last train. Currents were recorded using PatchMaster software with Heka EPC10 (HEKA Electronics, Lambrecht, Germany). Only cells with inward current amplitudes at −20 mV between 400 pA and 4 nA were accepted. In addition, cells having leak currents greater than 10% of their current amplitudes were discarded. […]

Row | SMILES | IC50 [1] [µM] | IC50 [2] [µM] | PAMPA (10^−6 cm/s) [3] | inhibition at 10 µM [4] [%]
1 | Cc1cccc(C)c1NC(=O)C[n+]1ccc(C)n1C(C)C [Compound 82] | 1 to 3 | > 100 | + (<0.1 10^−6 cm/s) | 
2 | Cc1cccc(C)c1NC(=O)C[n+]1cccc(OC(C)C)c1 [Compound 87] | < 1 | > 100 | + (<0.1 10^−6 cm/s) | 
3 | Cc1cccc(C)c1NC(=O)C[n+]1cccc(C(C)C)c1 [Compound 31] | 1 to 3 | > 100 | ++ (0.1-2.0 10^−6 cm/s) | 
4 | CCOC(=O)CCn1ccc[n+]1CC(=O)Nc1c(C)cccc1C [Compound 80] | 1 to 3 | > 100 | + (<0.1 10^−6 cm/s) | 
5 | Cc1cccc(C)c1NC(=O)C[n+]1cccn1C1CCC1 [Compound 72] | 3 to 10 | > 100 | + (<0.1 10^−6 cm/s) | 
6 | CCOC(=O)Cn1c(C)cc[n+]1CC(=O)Nc1c(C)cccc1C [Compound 86] | 3 to 10 | > 100 | + (<0.1 10^−6 cm/s) | 
7 | Cc1cccc(C)c1NC(=O)C[n+]1cccn1CCC#N [Compound 70] | 10 to 30 | > 100 | + (<0.1 10^−6 cm/s) | 
8 | CCOC(=O)Cn1ccc(C)[n+]1CC(=O)Nc1c(C)cccc1C [Compound 85] | 3 to 10 | > 100 | + (<0.1 10^−6 cm/s) | 
9 | Cc1cccc(C)c1NC(=O)C[n+]1cccn1C1CC1 [Compound 68] | 1 to 3 | > 100 | + (<0.1 10^−6 cm/s) | 
10 | Cc1cccc(C)c1NC(=O)C[n+]1cccn1CCC(C)C [Compound 74] | 3 to 10 | > 100 | + (<0.1 10^−6 cm/s) | 
11 | COc1cc(F)c[n+](CC(=O)Nc2c(C)cccc2C)c1 [Compound 78] | 1 to 3 | > 100 | + (<0.1 10^−6 cm/s) | 

Next, values leading:

Row | IC50 [1] [µM] | IC50 [2] [µM] | PAMPA (10^−6 cm/s) [3] | inhibition at 10 µM [4] [%] | SMILES
12 | 3 to 10 | > 100 | + (<0.1 10^−6 cm/s) |  | Cc1cccc(C)c1NC(=O)C[n+]1c(C)ccn1C [Compound 93]
13 | 3 to 10 | > 100 | + (<0.1 10^−6 cm/s) |  | CCCC(C(=O)Nc1c(C)cccc1C)[n+]1ccccc1 (stereo not drawn) [Compound 107]
14 | 3 to 10 | > 100 | + (<0.1 10^−6 cm/s) |  | Cc1cccc(C)c1NC(=O)C[n+]1ccc(C(N)=O)c(C(F)(F)F)c1 [Compound 90]
15 | 1 to 3 | > 100 | + (<0.1 10^−6 cm/s) |  | Cc1cccc(C)c1NC(=O)C[n+]1cccn1Cc1ccccc1 [Compound 92]
16 | 3 to 10 | > 100 | + (<0.1 10^−6 cm/s) |  | Cc1cccc(C)c1NC(=O)C[n+]1cccc(OCc2ccccc2)c1 [Compound 88]
17 | 1 to 3 | > 100 | + (<0.1 10^−6 cm/s) |  | Cc1cccc(C)c1NC(=O)C[n+]1c(C)ccn1C(C)C [Compound 102]
18 | 3 to 10 | 30 to 100 | + (<0.1 10^−6 cm/s) |  | Cc1cccc(C)c1NC(=O)C[n+]1cc(N)cc(C(F)(F)F)c1 [Compound 91]
19 | 3 to 10 | 30 to 100 |  | 70 to 95 | Cc1cccc(C)c1NC(=O)C[n+]1c2ccc(Cl)cc2cn1C [Compound 96]
